{"source": "paper PMC6238539", "about": "“Discovery of a cofactor-independent inhibitor of Mycobacterium tuberculosis InhA” (Life Science Alliance, 2018)", "key": {"[1]": {"system": "M. tuberculosis inhA promoter and coding sequence mutants", "details": "cited from earlier work"}, "M. tuberculosis": {"system": "M. tuberculosis", "details": "cited from earlier work"}, "[2]": {"system": "M. tuberculosis H37Rv-resistant mutants", "type": "cell-based, Mycobacterium tuberculosis", "details": "read-out: Liquid media IC90"}, "[3]": {"system": "M. tuberculosis drug-resistant clinical isolates", "assay": "microbe, parasite or virus in culture", "type": "cell-based", "details": "Mycobacterium tuberculosis"}, "M. tuberculosis H37Rv": {"system": "M. tuberculosis H37Rv", "type": "cell-based, Mycobacterium tuberculosis"}, "[4]": {"system": "M. tuberculosis inhA promoter and coding sequence mutants", "type": "cell-based, Mycobacterium tuberculosis", "details": "read-out: Liquid IC90"}, "[5]": {"details": "strains of Table 3, ref McNeil et al, 2017"}}, "note": "Where “and” joins values, the source holds several entries; their conditions need not be identical. Equal entries are not always repeated. Where two headings read alike, the source gives them in different places.", "data": [{"compound": "CC1(C)CCC(Cc2cc(O)c(-c3ccccc3)c(=O)[nH]2)CC1", "note": "[NITD-916]", "values": [{"measurement": "resistance of inhA / fabG1inhA promoter mutant strains", "setting": "[1]; [5]", "value": "resistant"}, {"measurement": "frequency of resistance", "setting": "M. tuberculosis; ref Manjunatha et al, 2015, Martínez-Hoyos et al, 2016", "value": "1 × 10^−8"}]}, {"compound": "NNC(=O)c1ccncc1", "note": "[INH, isoniazid]", "values": [{"measurement": "IC90", "setting": "[2]", "value": "300 nM and 100 nM and 400 nM"}, {"measurement": "MIC", "setting": "[3]; H37RV, read-out: MIC", "value": "< 0.06", "unit": "µg/mL"}, {"measurement": "IC90", "setting": "[1]; strain H37Rv (WT), ref McNeil et al (2017), read-out: Liquid IC90", "value": 100, "unit": "nM"}, {"measurement": "Liquid IC90 (fold shift versus WT)", "setting": "[1]; strain LP-0532543-RM1, InhA S94A, ref McNeil et al (2017)", "value": 2, "unit": "×"}, {"measurement": "Liquid IC90 (fold shift versus WT)", "setting": "[1]; strain LP-0532543-RM2, InhA D148E, ref McNeil et al (2017)", "value": 1, "unit": "×"}, {"measurement": "Liquid IC90 (fold shift versus WT)", "setting": "[1]; strain LP-0532543-RM3, InhA A206E, ref McNeil et al (2017)", "value": 1, "unit": "×"}, {"measurement": "Liquid IC90 (fold shift versus WT)", "setting": "[1]; strain LP-0532543-RM4, InhA M161L, ref McNeil et al (2017)", "value": 1, "unit": "×"}, {"measurement": "Liquid IC90 (fold shift versus WT)", "setting": "[1]; strain LP-0532543-RM6, InhA M103T, ref McNeil et al (2017)", "value": 1, "unit": "×"}, {"measurement": "Liquid IC90 (fold shift versus WT)", "setting": "[1]; strain LP-0532543-RM7, InhA G205A, ref McNeil et al (2017)", "value": 1, "unit": "×"}, {"measurement": "Liquid IC90 (fold shift versus WT)", "setting": "[1]; strain LP-0532543-RM9, InhA I202F, ref McNeil et al (2017)", "value": 1, "unit": "×"}, {"measurement": "Liquid IC90 (fold shift versus WT)", "setting": "[1]; strain LP-0532543-RM11, InhA G205S, ref McNeil et al (2017)", "value": 1, "unit": "×"}, {"measurement": "Liquid IC90 (fold shift versus WT)", "setting": "[1]; strain LP-0532543-RM13, InhA F41L, ref McNeil et al (2017)", "value": 1, "unit": "×"}, {"measurement": "Liquid IC90 (fold shift versus WT)", "setting": "[1]; strain LP-0532543-RM14, InhA G212D, ref McNeil et al (2017)", "value": 1, "unit": "×"}, {"measurement": "Liquid IC90 (fold shift versus WT)", "setting": "[1]; strain LP-0532543-RM16, InhA I215S, ref McNeil et al (2017)", "value": 1, "unit": "×"}, {"measurement": "Liquid IC90 (fold shift versus WT)", "setting": "[1]; strain LP-0532543-RM18, InhA S19W, ref McNeil et al (2017)", "value": 1, "unit": "×"}, {"measurement": "Liquid IC90 (fold shift versus WT)", "setting": "[1]; strain LP-0532543-RM19, InhA I47L, ref McNeil et al (2017)", "value": 1, "unit": "×"}, {"measurement": "Liquid IC90 (fold shift versus WT)", "setting": "[1]; strain LP-0532543-RM28, InhA I21M, ref McNeil et al (2017)", "value": 1, "unit": "×"}, {"measurement": "Liquid IC90 (fold shift versus WT)", "setting": "[1]; strain LP-0532543-RM30, fabG1inhA promoter c-15t, ref McNeil et al (2017)", "value": 5, "unit": "×"}, {"measurement": "Liquid IC90 (fold shift versus WT)", "setting": "[1]; strain LP-0532543-RM34, InhA I21V, ref McNeil et al (2017)", "value": 2, "unit": "×"}, {"measurement": "Liquid IC90 (fold shift versus WT)", "setting": "[1]; strain LP-0532543-RM37, InhA L269R, ref McNeil et al (2017)", "value": 1, "unit": "×"}, {"measurement": "Liquid IC90 (fold shift versus WT)", "setting": "[1]; strain LP-0532543-RM41, InhA R195G, ref McNeil et al (2017)", "value": 2, "unit": "×"}, {"measurement": "Liquid IC90 (fold shift versus WT)", "setting": "[1]; strain LP-0532543-RM301, promoter c-15t, InhA N159K, ref McNeil et al (2017)", "value": 3, "unit": "×"}, {"measurement": "Liquid IC90 (fold shift versus WT)", "setting": "[1]; strain LP-0532543-RM304, promoter c-15t, InhA T162M, ref McNeil et al (2017)", "value": 4, "unit": "×"}, {"measurement": "Liquid IC90 (fold shift versus WT)", "setting": "[1]; strain LP-0532543-RM311, promoter c-15t, InhA M161V, ref McNeil et al (2017)", "value": 5, "unit": "×"}, {"measurement": "Liquid IC90 (fold shift versus WT)", "setting": "[1]; strain LP-0532543-RM313, promoter c-15t, InhA G205D, ref McNeil et al (2017)", "value": 2, "unit": "×"}, {"measurement": "Liquid IC90 (fold shift versus WT)", "setting": "[1]; strain LP-0532543-RM314, promoter c-15t, InhA I47M, ref McNeil et al (2017)", "value": 5, "unit": "×"}, {"measurement": "Liquid IC90 (fold shift versus WT)", "setting": "[1]; strain LP-0532543-RM318, promoter c-15t, InhA M199L, ref McNeil et al (2017)", "value": 4, "unit": "×"}, {"measurement": "Liquid IC90 (fold shift versus WT)", "setting": "[1]; strain LP-0532543-RM320, promoter c-15t, InhA G208D, ref McNeil et al (2017)", "value": 4, "unit": "×"}, {"measurement": "Liquid IC90 (fold shift versus WT)", "setting": "[1]; strain LP-0571426-RM24, InhA I194T, ref McNeil et al (2017)", "value": 3, "unit": "×"}, {"measurement": "frequency of resistance", "setting": "M. tuberculosis", "value": "1 × 10^−5"}]}, {"compound": "CCS(=O)(=O)N1N=Cc2ccc(Oc3ccc(C(F)(F)F)cc3/C=N/O)cc2B1O", "note": "[AN12855]", "values": [{"measurement": "MIC", "setting": "[3]; H37RV, read-out: MIC", "value": 0.13, "unit": "µg/mL"}, {"measurement": "MIC", "setting": "[3]; read-out: MIC", "value": 0.25, "unit": "µg/mL"}, {"measurement": "frequency of resistance", "setting": "M. tuberculosis H37Rv", "value": "6.5 × 10^−7"}, {"measurement": "IC90", "setting": "[4]", "value": 60, "unit": "nM"}]}, {"compound": "Oc1cc(Cl)ccc1Oc1ccc(Cl)cc1Cl", "note": "[triclosan]", "values": [{"measurement": "cross-resistance of the mutants", "setting": "[1]; [5]", "value": "None of the mutants demonstrated cross-resistance"}]}, {"compound": "N#Cc1ccc(Oc2ccc3c(c2)COB3O)c(/C=N/O)c1", "note": "[AN3438]", "values": [{"measurement": "frequency of resistance", "setting": "M. tuberculosis H37Rv", "value": "6.5 × 10^−7"}]}, {"compound": "CO[C@H]1/C=C/O[C@@]2(C)Oc3c(C)c(O)c4c(O)c(c(/C=N/N5CCN(C)CC5)c(O)c4c3C2=O)NC(=O)/C(C)=C\\C=C\\[C@H](C)[C@H](O)[C@@H](C)[C@@H](O)[C@@H](C)[C@H](OC(C)=O)[C@@H]1C", "note": "[RIF, rifampicin]", "values": [{"measurement": "MIC", "setting": "[3]", "value": "> 16", "unit": "µg/mL"}, {"measurement": "MIC", "setting": "[3]; H37RV", "value": "< 0.06", "unit": "µg/mL"}]}]}
